Assays:
[1] = Affinity biosensor binding with immobilized lipid A; conditions: 100 μM operating solution, 5 μl loaded
Description: Immobilization of lipid A and CpG DNA: Using Optically-Based Affinity Biosensors technology, Lipid A, the biologic active centres of LPS, and CpG DNA were respectively, immobilized on the reacting surfaces of cuvettes in an IAsys plus affinity biosensor according to the manufacturer's instructions of IAsys Affinity Sensor. The end of hydrophobic side chain of lipid A was immobilized on cuvette with hydrophobic surface, and the phosphate group (active group of lipid A) at the other end was floating and exposing to the outside, which act as target spot of binding with active constituents for disease treatment in traditional Chinese medicine. The active constituents in solution were binded to lipid A through electrostatic interaction. […]
2.1.1 Methods: 500 g Lycii cortex was added with 5 L distilled water, soaked for 24 h, boiled at 100 for 1 h, filtered by coarse filter paper, and centrifuged at 8000 rpm/min for 30 min, and the supernatant was collected and concentrated to 1 L under reduced pressure. […] Their binding activity with lipid A and CpG DNA were detected according to methods of embodiment 1. […]
3.1 Methods: KA and KB were separately dissolved to make 100 μM operating solution; 5 μl of the solution was loaded; their binding activity with lipid A and CpG DNA were detected according to methods of embodiment 1.

RAW264.7 cells = test: Binding of fluorescently-labeled LPS and CpG DNA with RAW264.7 cells (flow cytometry); assay type: cell-based, murine; conditions: 30 min; for fluorescence intensity of CpG DNA in RAW264.7 cells / fluorescence intensity of LPS in RAW264.7 cells: 200 μg/ml, p<0.01; for fluorescence intensity of CpG DNA in RAW264.7 cells: 5-FAM CpG DNA 10 μg/ml; for fluorescence intensity of LPS in RAW264.7 cells: FITC-labeled LPS 400 ng/ml
Method: 5.1 Methods: RAW264.7 cells were diluted to 1×10^6/ml in DMEM supplemented with 10% (v/v) NCS, added into 24-well cell culture plates, cultured at 37° C. in a 5% CO2 humidified incubator for 4 h, added with KA and KB (0, 200 μg/ml) after cells attachment, and then added with FITC-labeled LPS (final concentration of 400 ng/ml) and 5-FAM CpG DNA (final concentration of 10 μg/ml); at the same time, medium group without any reagent was established; subsequently, RAW264.7 cells were incubated for 30 min, washed thrice in PBS, resuspended with a pipet and transferred into EP tube, and immobilized with 4% paraform for 10 min; then cells were washed thrice in PBS, made into cell suspension, and detected by flow cytometry; the detections of each group were repeated thrice. Mean fluorescence intensity was expressed by means of Mean±standard deviation.
20.1 Methods: RAW264.7 cells was diluted to 1×10^6/ml in DMEM supplemented with 10% (v/v) NCS; 2 ml of the above suspension was added into 24-well cell culture plates and cultured at 37° C. in a 5% CO2 humidified incubator for 4 h; for the purpose of experiment three groups were established: medium group, stimulation group and KB treatment group; no reagent was added into medium group; stimulation group was added with FITC-LPS (200 ng/ml) and 5-FAM-CpG DNA (10 μg/ml); KB treatment group was added with KB (final concentrations of 50, 100 and 200 μM) in the meantime of adding LPS and CpG DNA; cells continued to be cultured for 30 min, washed thrice with PBS, and stored in dark place until the fluorescence intensity of cell membrane surfaces was detected by flow cytometry.

[2] = test system: murine peritoneal macrophages; test: Release of TNF-α and IL-6 in murine peritoneal macrophages induced by LPS and CpG DNA (ELISA); assay type: cell-based, KM mice; conditions: 50, 100 and 200 μM, TNF-α at 4 h, IL-6 at 12 h
Method: Separation and culture of murine peritoneal macrophages: KM mice were killed by cervical dislocation and immediately immersed in 75% ethanol for skin degerming; then abdominal skin was aseptically cut open; precooling DMEM cell culture medium was slowly injected in exposed peritoneum with a 5 ml syringe; murine abdomen was gently massaged for sufficient cell collection; subsequently, DMEM was withdrew, transferred into 10 ml centrifuge tube, centrifuged at 500 rpm for 5 min, resuspended in DMEM supplemented with 10% (v/v) NCS, transferred into cell culture bottle, and then cultured at 37° C. in a 5% CO2 humidified incubator for 2 h; culture medium was replaced with fresh culture medium to remove unattached cells; over 95% of the remained cells were murine peritoneal macrophages, which continued to be cultured and proliferated.
Loading and detection: According to the method in embodiment 6, KB and PMB were separately diluted in DMEM supplemented with 10% (v/v) NCS and transferred into culture medium of […] to achieved final concentrations of 50, 100 and 200 μM; RAW264.7 cells continued to be incubated; the supernatant was collected four hours later for TNF-α detection; the supernatant at were collected 12 hours later for IL-6 detection; the concentration of TNF-α and IL-6 of each group was detected according to the manufacturer's instructions of ELISA kit; result was expressed by means of mean±standard deviation.

Compound	affinity with lipid A [1]	fluorescence intensity of CpG DNA in RAW264.7 cells (RAW264.7 cells)	fluorescence intensity of LPS in RAW264.7 cells (RAW264.7 cells)	mean fluorescence intensity (MFI) of cell membrane, 5-FAM-CpG DNA (RAW264.7 cells; KB 50, 100 and 200 μM, 5-FAM-CpG DNA 10 μg/ml)	mean fluorescence intensity (MFI) of cell membrane, FITC-LPS (RAW264.7 cells; KB 50, 100 and 200 μM, FITC-LPS 200 ng/ml)	release of TNF-α and IL-6 induced by CpG DNA [2]	release of TNF-α and IL-6 induced by LPS [2]
O=C(CCc1ccc(O)c(O)c1)NCCCNCCCCNCCCNC(=O)CCc1ccc(O)c(O)c1 [KA, Kukoamine A]	high affinity	significantly decrease the fluorescence intensity	significantly decrease the fluorescence intensity	–	–	–	–
NCCCN(CCCCNCCCNC(=O)CCc1ccc(O)c(O)c1)C(=O)CCc1ccc(O)c(O)c1 [KB, Kukoamine B]	high affinity	significantly decrease the fluorescence intensity	significantly decrease the fluorescence intensity	decrease the MFI of cell membrane in a dose-dependent manner	decrease the MFI of cell membrane in a dose-dependent manner	inhibit the release of TNF-α and IL-6	inhibit the release of TNF-α and IL-6
polymyxin B [PMB, reference compound]	–	–	–	–	–	can only inhibit the release of TNF-α and IL-6 induced by LPS	inhibit the release of TNF-α and IL-6
